IC50, EC50 and AC50 data for six compounds are collected here from ChEMBL document CHEMBL1201862, “PubChem BioAssay data set” (2004).

pEC50: −log10 of the molar value. Activity calls are given as the source filed them.

One assay addresses Large T antigen (Simian virus 40, UniProt P03070). Nature of the assay: A confirmatory biochemical assay using the ADP-Hunter methodology, purified TAg, and ATP to quantify activity of synthesized compounds that inhibit the ATPase activity of Tag (3). [Related pubchem assays (depositor defined):AID1903, AID1909, AID2102, AID2501, AID2615, AID2775, AID435001, AID449729]. Further details: species or system Betapolyomavirus macacae.

The target of assay [1] is Glyceraldehyde-3-phosphate dehydrogenase (Homo sapiens, UniProt P04406).
Glyceraldehyde-3-phosphate dehydrogenase, sequence (P04406 whole entry): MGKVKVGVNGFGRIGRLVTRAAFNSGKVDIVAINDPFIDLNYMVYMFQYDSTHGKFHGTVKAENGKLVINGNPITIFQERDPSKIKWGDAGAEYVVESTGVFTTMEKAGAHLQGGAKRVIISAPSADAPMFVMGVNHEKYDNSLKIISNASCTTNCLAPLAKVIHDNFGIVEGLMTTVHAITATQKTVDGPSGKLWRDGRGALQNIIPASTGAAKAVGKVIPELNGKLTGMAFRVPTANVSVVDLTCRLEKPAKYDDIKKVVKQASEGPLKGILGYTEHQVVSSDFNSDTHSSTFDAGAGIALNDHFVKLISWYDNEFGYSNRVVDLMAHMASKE
Assay [2] has as its target Alkaline phosphatase, placental type (Homo sapiens, UniProt P05187). Nature of the assay: human placental alkaline phosphatase inhibition – biochemical, luminescence, confirmation (AID 1512). Type of assay: functional.
Assay [3] has as its target E3 ubiquitin-protein ligase Mdm2/Protein Mdm4 (Homo sapiens, UniProt O15151+Q00987). Nature of the assay: disruption of Mdm2/MdmX protein binding – luminescence detection, dose response (AID 504593). Type of assay: functional.
Assay [4] deals with T1, Heat shock factor protein 1 (Mus musculus, UniProt P38532).
T1 sequence (P38532 whole entry): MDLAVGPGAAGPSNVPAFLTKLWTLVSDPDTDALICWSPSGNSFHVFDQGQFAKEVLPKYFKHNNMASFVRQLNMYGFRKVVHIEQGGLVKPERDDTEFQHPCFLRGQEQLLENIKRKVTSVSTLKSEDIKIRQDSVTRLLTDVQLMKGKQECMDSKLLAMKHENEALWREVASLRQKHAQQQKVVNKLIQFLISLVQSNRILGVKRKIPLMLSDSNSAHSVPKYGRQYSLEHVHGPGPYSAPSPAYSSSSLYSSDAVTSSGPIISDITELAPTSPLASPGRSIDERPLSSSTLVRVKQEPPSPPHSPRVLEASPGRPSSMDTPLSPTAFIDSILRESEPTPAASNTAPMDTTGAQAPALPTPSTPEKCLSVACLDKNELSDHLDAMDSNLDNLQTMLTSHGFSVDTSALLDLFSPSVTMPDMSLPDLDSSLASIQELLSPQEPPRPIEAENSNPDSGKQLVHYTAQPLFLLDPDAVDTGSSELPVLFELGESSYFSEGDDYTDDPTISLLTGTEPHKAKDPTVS
Nature of the assay: enhancement of HSF1-driven luciferase signal – cell-based, NIH3T3, luminescence, dose retest, confirmation (AID 435004).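 Further: stress induced by proteasome inhibitor MG132 added 30 min after compound; luciferase reporter driven by HSF1 response element in NIH3T3 cells; actives raise luminescence as potentiators of the MG132 stress response.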 Type of assay: functional.

Assay [5] in a line: reduction of Shn3 3'UTR-driven luciferase in osteoblasts – cell-based, Clone20 osteoblasts, firefly luciferase, cherry-picked, dose response (AID 624132).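 Further: firefly luciferase luminescence from reporter carrying the Shn3 3'UTR in osteoblasts.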 Type of assay: functional.
Assay [6] is described as follows: loss of viability in HepG2 cells – cell-based, CellTiter-Glo, cherry-picked, cytotoxicity control for Shn3 inhibitor project, dose response (AID 624134). Format: functional. On the technique in general: ATP-based viability assays read luminescence as a measure of living cells.
A short description of assay [7]: non-specific 3'UTR reporter inhibition in Clone20-Shn3RL – cell-based, Renilla luciferase, cherry-picked, counter-screen for Shn3 inhibitor project, dose response (AID 624133). Format: functional. Background: A counterscreen serves to expose hits that act by an unwanted route or on another target.
The target in assay [8] is T2, Delta-type opioid receptor (Homo sapiens, UniProt P41143). Nature of the assay: HTS Image-Based Screen for Antagonists of the DOR Receptor. [Related pubchem assays (depositor defined):AID1777, AID1785, AID1786, AID2133]. Type of assay: functional.
T2 sequence (P41143 whole entry): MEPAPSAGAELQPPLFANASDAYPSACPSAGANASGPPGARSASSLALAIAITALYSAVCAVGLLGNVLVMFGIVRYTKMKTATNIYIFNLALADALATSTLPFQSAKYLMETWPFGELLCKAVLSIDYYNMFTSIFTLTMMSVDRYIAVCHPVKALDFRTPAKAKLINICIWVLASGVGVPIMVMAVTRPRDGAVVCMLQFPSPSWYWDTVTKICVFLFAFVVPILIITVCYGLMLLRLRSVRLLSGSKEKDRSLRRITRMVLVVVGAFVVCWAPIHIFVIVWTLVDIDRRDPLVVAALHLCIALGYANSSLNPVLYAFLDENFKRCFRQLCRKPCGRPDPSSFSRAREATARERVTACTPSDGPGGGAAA
Another assay addresses Mu-type opioid receptor (Homo sapiens, UniProt P35372). Put plainly: HTS Image-Based Screen for Agonists of the MOR Receptor. [Related pubchem assays (depositor defined):AID1777, AID1785, AID1786, AID2133]. Format: functional.
For assay [9], the target named is T2, Delta-type opioid receptor. Nature of the assay: HTS Image-Based Screen for Agonists of the DOR Receptor. [Related pubchem assays (depositor defined):AID1777, AID1786, AID2133]. Type of assay: functional.
In assay [10] the target is T3, Kappa-type opioid receptor (Homo sapiens, UniProt P41145). Type of assay: functional.
T3 sequence (P41145 whole entry): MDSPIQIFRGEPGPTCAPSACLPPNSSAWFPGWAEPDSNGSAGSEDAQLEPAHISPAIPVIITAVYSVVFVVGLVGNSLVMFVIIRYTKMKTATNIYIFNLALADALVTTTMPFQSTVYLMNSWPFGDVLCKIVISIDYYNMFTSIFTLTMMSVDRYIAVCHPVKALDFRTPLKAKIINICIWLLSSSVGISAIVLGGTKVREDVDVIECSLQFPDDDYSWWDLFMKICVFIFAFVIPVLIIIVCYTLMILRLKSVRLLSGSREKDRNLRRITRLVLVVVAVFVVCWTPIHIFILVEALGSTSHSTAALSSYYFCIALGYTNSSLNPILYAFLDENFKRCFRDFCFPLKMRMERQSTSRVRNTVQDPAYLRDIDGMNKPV
The target of assay [11] is T3, Kappa-type opioid receptor. Format: functional. This is another data set of the same source.
Assay [12] addresses T3, Kappa-type opioid receptor. Format: functional. The source holds these as a separate data set.
Assay [13] in a line: HEK-293T cell viability reduction – luminescence, B-cell screen hits, cytotoxicity control for BCR NF-kB inhibitor project, dose response (AID 489021).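 Further: HEK-293T cells carrying an NF-kB luciferase reporter; cells exposed to compound for about 14 hours before viability readout.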 Format: functional, cell-based.
A further assay concerns the target Protein Rev (Human immunodeficiency virus type 1 group M subtype B (isolate HXB2)(HIV-1), UniProt P04618). Nature of the assay: blockers of HIV Rev/RRE RNA complex – biochemical, fluorescence polarization, HIV-1, dose response (AID 434976). On the set-up: species or system Human immunodeficiency virus 1. (In fluorescence polarisation assays a small probe gives low polarisation when free and higher when bound to something large.)

The target of assay [14] is Female germline-specific tumor suppressor gld-1 (Caenorhabditis elegans, UniProt Q17339). Put plainly: blockers of GLD-1/TGE RNA complex formation – biochemical, fluorescence polarization, C. elegans, dose response (AID 2802).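 Further: fluorescence polarization of labeled TGE RNA bound by purified gld-1 protein.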
Female germline-specific tumor suppressor gld-1, sequence (Q17339 whole entry): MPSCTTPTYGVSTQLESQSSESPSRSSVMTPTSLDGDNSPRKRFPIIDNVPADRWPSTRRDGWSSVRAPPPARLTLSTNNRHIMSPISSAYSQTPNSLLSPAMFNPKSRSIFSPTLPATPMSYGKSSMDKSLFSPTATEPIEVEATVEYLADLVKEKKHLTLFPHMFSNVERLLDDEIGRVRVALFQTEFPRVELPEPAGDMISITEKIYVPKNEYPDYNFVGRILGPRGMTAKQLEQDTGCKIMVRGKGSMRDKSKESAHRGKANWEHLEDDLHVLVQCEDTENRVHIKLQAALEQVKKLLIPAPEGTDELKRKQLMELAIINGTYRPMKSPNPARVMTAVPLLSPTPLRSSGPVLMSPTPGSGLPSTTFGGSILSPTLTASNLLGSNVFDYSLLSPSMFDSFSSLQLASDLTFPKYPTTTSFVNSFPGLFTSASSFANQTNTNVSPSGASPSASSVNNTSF

Mu-type opioid receptor, sequence (P35372 whole entry): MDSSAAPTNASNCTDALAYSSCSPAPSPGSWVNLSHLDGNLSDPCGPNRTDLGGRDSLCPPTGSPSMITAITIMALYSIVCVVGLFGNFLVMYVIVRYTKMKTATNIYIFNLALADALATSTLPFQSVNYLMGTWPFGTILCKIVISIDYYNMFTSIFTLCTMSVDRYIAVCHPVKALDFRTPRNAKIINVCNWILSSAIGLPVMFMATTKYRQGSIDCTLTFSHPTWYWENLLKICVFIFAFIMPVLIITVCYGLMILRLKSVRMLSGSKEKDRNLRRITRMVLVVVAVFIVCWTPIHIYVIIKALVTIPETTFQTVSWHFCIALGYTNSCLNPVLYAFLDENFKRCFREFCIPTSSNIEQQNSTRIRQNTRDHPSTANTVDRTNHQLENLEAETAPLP
E3 ubiquitin-protein ligase Mdm2/Protein Mdm4, sequence (Q00987 whole entry): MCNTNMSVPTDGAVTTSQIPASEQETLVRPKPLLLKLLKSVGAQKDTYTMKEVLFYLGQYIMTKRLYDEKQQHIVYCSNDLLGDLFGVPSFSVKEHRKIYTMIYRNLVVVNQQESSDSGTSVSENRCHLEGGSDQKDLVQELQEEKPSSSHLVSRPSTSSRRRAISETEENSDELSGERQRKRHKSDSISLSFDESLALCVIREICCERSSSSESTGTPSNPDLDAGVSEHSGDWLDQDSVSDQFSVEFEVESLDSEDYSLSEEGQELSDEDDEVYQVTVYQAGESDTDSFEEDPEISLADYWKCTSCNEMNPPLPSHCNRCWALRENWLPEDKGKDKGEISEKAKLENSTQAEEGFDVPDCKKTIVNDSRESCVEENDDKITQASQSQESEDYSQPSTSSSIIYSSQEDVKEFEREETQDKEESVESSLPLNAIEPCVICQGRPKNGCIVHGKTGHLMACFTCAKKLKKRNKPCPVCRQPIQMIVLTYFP
E3 ubiquitin-protein ligase Mdm2/Protein Mdm4, sequence (O15151 whole entry): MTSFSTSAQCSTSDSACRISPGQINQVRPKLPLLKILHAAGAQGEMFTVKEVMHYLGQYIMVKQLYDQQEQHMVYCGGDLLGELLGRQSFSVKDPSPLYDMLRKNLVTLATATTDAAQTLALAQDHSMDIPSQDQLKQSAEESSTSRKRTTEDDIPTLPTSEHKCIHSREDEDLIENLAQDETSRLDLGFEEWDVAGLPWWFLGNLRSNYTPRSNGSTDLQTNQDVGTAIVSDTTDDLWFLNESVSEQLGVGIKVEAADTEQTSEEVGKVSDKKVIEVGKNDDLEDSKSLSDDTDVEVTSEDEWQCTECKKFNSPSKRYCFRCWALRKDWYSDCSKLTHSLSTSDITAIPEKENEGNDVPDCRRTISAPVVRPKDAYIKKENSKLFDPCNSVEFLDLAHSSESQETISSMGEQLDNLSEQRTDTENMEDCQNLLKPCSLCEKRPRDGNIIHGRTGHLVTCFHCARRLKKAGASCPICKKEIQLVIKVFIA
Alkaline phosphatase, placental type, sequence (P05187 whole entry): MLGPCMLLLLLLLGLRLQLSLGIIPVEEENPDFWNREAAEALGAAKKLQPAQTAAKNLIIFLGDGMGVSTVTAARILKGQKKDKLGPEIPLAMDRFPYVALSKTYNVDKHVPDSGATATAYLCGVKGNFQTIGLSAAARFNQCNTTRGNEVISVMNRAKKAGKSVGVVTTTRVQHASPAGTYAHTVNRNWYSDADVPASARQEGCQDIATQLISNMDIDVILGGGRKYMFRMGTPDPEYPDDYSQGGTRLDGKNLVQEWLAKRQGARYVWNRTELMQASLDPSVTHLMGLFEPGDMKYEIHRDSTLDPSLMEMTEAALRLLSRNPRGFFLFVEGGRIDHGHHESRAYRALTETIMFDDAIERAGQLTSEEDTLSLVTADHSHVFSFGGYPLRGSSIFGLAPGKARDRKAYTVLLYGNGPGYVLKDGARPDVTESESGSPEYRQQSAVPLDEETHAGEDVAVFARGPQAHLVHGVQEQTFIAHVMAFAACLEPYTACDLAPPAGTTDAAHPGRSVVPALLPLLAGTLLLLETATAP
Protein Rev, sequence (P04618 whole entry): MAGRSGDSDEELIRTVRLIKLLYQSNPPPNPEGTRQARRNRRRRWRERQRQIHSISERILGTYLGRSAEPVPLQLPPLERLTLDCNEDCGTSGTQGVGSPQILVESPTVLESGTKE
Large T antigen, sequence (P03070 whole entry): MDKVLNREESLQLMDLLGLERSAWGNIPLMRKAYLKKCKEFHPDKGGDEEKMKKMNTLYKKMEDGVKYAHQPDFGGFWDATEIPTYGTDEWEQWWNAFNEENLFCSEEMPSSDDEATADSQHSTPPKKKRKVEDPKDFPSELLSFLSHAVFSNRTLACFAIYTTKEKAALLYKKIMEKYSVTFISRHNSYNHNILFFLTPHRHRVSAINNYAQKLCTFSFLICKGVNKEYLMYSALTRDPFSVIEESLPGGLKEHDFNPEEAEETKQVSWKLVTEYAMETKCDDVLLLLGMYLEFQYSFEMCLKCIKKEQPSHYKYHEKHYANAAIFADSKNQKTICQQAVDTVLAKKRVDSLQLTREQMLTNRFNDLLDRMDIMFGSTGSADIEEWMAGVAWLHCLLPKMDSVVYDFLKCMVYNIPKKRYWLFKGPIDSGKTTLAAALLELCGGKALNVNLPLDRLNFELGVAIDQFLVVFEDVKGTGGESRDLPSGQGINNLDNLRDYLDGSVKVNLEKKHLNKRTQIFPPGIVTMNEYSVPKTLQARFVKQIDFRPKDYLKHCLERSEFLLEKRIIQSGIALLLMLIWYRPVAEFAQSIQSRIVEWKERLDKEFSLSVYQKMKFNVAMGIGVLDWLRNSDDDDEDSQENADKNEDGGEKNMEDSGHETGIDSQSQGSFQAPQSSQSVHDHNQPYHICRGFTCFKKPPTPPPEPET

Regarding `Oc1ccc(Cc2ccc(O)cc2)cc1`, at Large T antigen, the IC50 is 70.1 µM (active).

In the case of `O=C(NCCO)c1cc(-c2ccc(Cl)cc2Cl)n[nH]1`, the results for the IC50 in assay [1] and in [2] were > 100 µM (not active) and 21.1 µM (active), respectively.

For `CCOC(=O)/C=C/C(=O)OCC(=O)NC(c1ccccc1)c1ccccc1`, in assay [3], the IC50 is 3.28 µM (active). For the same compound, the EC50 in assay [4] is 13.4 µM (active). Also, the AC50 was 5.14 µM (active) in assay [5], > 70 µM (inactive) in [6] and 22 µM (active) in [7].

In the case of `CCC(C)(C(=O)NC1CCCCC1)N(Cc1cccs1)C(=O)c1ccccn1` (configuration not stated), the IC50 in assay [8] was > 32 µM (inactive); in [11], > 5 µM (inactive). Further, the EC50 (on Mu-type opioid receptor; in [9]) was > 32 µM (inactive) in each case. The pEC50 is greater than 6.30 in assay [10] and 7.22 in assay [12].

With `O=C1CCCc2c1[nH]c1ccc(CN3CCCCC3)cc21`, in assay [13], the IC50 was > 80 µM (inactive).

On to `CCOC(=O)c1cc2c(ccn2C)n1CC(=O)N(Cc1ccccc1)c1ccc(F)cc1`, for which the IC50 on Protein Rev was > 75.4 µM (not active); in [14] it was > 59.6 µM (inactive).

The term IC50 denotes the concentration needed to halve the response being measured. Broadly, the EC50 is the concentration giving half of the maximal effect. What is called AC50 is the concentration giving half of the maximal activity seen. What is called pEC50 is −log10 of the EC50, conventionally taken in molar units. Low values mean a large EC50, high ones a small EC50.
